Key:
[1] = target: Dual specificity mitogen-activated protein kinase kinase 1 (Homo sapiens) (UniProt Q02750); assay: Inhibition of human MKK1 (2 to 393 residues) assessed as enzyme activity at 1 uM using 33P ATP by radioactive filter binding assay; design: scale not given: the % may be the effect or the level left
[2] = target: Serine/threonine-protein kinase pim-3 (Homo sapiens) (UniProt Q86V86); assay: Inhibition of human PIM3 (2 to 326 residues) assessed as enzyme activity at 1 uM using 33P ATP by radioactive filter binding assay; design: scale not given: the % may be the effect or the level left
[3] = target: RAC-alpha serine/threonine-protein kinase (Homo sapiens) (UniProt P31749); assay: Inhibition of human PKBalpha (118 to 480 residues) assessed as enzyme activity at 1 uM using 33P ATP by radioactive filter binding assay; design: scale not given: the % may be the effect or the level left
Chain of RAC-alpha serine/threonine-protein kinase (Homo sapiens) (P31749 whole entry, the tested form may be a part): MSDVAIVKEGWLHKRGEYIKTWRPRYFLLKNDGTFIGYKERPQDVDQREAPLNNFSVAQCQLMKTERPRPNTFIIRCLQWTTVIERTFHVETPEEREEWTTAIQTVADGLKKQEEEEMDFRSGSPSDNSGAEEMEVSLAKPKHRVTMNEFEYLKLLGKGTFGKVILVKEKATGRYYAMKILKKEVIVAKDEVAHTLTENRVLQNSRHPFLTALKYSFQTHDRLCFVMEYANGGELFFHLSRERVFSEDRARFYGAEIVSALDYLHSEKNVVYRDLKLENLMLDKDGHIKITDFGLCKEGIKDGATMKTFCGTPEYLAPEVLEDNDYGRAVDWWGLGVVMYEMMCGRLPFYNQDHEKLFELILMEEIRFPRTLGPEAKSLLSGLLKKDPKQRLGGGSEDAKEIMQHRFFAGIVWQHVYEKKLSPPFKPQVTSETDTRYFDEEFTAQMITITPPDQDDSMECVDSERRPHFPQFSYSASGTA

[4] = target: RAC-beta serine/threonine-protein kinase (Homo sapiens) (UniProt P31751); assay: Inhibition of human PKBbeta (120 to 481 residues) assessed as enzyme activity at 1 uM using 33P ATP by radioactive filter binding assay; design: scale not given: the % may be the effect or the level left
Chain of RAC-beta serine/threonine-protein kinase (Homo sapiens) (P31751 whole entry, the tested form may be a part): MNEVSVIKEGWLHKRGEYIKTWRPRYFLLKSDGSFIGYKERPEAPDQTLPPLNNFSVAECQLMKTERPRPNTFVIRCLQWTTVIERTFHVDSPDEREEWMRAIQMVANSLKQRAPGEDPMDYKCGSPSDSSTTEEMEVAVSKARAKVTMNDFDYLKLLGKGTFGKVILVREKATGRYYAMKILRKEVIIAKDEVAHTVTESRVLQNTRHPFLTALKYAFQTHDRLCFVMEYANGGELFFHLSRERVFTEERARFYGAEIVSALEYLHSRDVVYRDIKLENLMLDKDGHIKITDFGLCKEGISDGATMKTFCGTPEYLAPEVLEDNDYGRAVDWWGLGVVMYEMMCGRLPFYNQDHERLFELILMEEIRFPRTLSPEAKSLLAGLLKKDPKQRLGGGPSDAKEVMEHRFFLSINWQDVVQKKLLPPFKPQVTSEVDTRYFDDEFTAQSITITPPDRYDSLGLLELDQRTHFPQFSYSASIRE

[5] = target: Serine/threonine-protein kinase PLK1 (Homo sapiens) (UniProt P53350); assay: Inhibition of human PLK1 (1 to 603 residues) assessed as enzyme activity at 1 uM using 33P ATP by radioactive filter binding assay; design: scale not given: the % may be the effect or the level left
Chain of Serine/threonine-protein kinase PLK1 (Homo sapiens) (P53350 whole entry, the tested form may be a part): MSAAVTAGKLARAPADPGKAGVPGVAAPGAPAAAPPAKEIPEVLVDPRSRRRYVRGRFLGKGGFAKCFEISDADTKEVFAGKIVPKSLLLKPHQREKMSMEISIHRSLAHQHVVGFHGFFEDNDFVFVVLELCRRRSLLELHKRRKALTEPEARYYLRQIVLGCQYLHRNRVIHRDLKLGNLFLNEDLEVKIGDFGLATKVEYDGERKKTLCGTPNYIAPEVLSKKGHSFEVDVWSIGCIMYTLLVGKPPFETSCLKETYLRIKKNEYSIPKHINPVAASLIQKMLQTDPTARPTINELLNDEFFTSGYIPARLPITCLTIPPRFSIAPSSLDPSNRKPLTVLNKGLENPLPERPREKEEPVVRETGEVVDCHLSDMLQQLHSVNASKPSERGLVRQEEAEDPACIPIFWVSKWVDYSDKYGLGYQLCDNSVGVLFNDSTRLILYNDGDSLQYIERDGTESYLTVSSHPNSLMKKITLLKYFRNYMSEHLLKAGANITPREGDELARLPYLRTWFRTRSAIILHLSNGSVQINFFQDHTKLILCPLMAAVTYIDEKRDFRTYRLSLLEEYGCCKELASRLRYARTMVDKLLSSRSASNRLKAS

[6] = target: Mitogen-activated protein kinase 14 (Homo sapiens) (UniProt Q16539); assay: Inhibition of SAPK2a (unknown origin) assessed as enzyme activity at 1 uM using 33P ATP by radioactive filter binding assay; design: scale not given: the % may be the effect or the level left
Chain of Mitogen-activated protein kinase 14 (Homo sapiens) (Q16539 whole entry): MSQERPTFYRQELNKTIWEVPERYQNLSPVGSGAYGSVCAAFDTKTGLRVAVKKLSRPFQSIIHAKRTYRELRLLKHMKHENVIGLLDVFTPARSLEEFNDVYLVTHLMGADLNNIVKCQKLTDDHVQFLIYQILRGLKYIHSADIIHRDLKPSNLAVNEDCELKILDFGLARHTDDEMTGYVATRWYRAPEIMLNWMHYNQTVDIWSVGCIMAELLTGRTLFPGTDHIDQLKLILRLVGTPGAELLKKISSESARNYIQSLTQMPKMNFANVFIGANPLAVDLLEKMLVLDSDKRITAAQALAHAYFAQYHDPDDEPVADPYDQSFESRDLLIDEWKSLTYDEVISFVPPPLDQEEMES

[7] = target: T1, Mitogen-activated protein kinase 13 (Homo sapiens) (UniProt O15264); assay: Inhibition of SAPK4 (unknown origin) assessed as enzyme activity at 1 uM using 33P ATP by radioactive filter binding assay; design: scale not given: the % may be the effect or the level left
T1 sequence (whole entry): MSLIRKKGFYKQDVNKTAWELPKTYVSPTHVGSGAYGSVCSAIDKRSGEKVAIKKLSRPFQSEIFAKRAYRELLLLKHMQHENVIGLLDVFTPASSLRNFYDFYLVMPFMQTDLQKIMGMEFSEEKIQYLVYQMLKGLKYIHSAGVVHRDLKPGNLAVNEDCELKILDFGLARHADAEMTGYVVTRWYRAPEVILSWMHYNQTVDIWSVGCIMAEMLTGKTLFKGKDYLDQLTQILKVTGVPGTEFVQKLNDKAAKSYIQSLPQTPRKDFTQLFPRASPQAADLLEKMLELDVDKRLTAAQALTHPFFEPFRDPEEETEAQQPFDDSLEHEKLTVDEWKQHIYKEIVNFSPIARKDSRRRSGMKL

[8] = target: Tyrosine-protein kinase SYK (Homo sapiens) (UniProt P43405); assay: Inhibition of human SYK (1 to 635 residues) assessed as enzyme activity at 1 uM using 33P ATP by radioactive filter binding assay; design: scale not given: the % may be the effect or the level left
[9] = target: T2, Phosphatidylinositol 4,5-bisphosphate 3-kinase catalytic subunit delta isoform (Homo sapiens, UniProt O00329); assay: Inhibition of PI3K delta (unknown origin)
T2 sequence (O00329 whole entry): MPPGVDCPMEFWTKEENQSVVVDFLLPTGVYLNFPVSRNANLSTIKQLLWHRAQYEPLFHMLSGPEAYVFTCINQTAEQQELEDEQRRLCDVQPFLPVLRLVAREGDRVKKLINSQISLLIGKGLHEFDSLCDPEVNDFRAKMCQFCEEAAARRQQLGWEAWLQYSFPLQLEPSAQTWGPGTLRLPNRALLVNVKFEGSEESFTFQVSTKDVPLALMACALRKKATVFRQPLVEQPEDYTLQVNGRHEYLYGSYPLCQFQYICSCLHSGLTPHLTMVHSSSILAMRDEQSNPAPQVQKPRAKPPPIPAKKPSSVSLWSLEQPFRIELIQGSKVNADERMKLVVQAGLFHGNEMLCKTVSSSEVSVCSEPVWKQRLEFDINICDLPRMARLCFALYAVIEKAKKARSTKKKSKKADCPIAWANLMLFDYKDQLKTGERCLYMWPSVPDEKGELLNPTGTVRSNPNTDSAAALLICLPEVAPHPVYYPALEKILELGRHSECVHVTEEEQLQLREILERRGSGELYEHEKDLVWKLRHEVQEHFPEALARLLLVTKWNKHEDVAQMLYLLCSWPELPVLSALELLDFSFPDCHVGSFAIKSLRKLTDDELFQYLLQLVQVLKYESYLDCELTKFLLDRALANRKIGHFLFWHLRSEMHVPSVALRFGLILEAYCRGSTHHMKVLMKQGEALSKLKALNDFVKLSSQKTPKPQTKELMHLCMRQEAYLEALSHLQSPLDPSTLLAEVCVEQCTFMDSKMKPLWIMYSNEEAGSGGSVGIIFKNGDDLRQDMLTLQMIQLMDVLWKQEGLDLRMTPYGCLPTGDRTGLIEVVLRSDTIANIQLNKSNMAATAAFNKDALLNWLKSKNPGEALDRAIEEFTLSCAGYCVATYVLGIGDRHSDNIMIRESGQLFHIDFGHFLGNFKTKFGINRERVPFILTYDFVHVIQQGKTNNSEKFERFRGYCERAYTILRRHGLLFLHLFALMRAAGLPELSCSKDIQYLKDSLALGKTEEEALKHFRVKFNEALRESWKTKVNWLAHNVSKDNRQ

[10] = target: T3, Serine/threonine-protein kinase BRSK2 (Homo sapiens) (UniProt Q8IWQ3); assay: Inhibition of human BRSK2 (2 to 674 residues) assessed as enzyme activity at 1 uM using 33P ATP by radioactive filter binding assay; design: scale not given: the % may be the effect or the level left
T3 sequence (whole entry): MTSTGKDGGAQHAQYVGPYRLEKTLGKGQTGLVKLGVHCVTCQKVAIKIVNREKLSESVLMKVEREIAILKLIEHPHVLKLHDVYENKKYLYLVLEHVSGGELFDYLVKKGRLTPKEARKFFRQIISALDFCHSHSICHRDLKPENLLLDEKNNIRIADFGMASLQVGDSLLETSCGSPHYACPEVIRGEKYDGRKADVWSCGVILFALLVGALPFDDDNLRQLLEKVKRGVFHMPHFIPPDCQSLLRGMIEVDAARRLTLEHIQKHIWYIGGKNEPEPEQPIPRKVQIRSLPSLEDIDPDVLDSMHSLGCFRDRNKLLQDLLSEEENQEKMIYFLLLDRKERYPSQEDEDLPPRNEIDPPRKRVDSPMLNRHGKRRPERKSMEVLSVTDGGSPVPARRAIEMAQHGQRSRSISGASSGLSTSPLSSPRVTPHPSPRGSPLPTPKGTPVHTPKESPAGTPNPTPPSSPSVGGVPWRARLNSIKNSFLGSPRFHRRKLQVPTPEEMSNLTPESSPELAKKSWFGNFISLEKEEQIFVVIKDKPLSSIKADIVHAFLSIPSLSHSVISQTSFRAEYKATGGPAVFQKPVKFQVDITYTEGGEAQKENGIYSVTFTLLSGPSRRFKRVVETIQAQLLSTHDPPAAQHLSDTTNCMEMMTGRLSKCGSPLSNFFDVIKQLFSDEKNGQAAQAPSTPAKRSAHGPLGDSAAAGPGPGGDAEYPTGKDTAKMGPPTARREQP

Chain of Dual specificity mitogen-activated protein kinase kinase 1 (Homo sapiens) (Q02750 whole entry, the tested form may be a part): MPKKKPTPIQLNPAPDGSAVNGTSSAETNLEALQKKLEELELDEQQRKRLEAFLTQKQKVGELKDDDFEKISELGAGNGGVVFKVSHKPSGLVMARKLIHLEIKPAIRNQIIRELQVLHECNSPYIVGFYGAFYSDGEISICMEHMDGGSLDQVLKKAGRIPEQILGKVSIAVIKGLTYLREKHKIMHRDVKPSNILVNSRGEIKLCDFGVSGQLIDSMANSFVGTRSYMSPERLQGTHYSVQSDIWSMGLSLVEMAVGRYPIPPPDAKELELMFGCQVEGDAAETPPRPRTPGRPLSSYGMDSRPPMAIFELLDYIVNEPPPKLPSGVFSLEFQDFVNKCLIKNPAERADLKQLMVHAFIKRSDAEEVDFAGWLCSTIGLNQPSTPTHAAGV

Row | SMILES | Activity [1] [%] | Activity [2] [%] | Activity [3] [%] | Activity [4] [%] | Activity [5] [%] | Activity [6] [%] | Activity [7] [%] | Activity [8] [%] | IC50 [9] [µM] | Activity [10] [%]
1 | CCCCc1cc(-c2c[nH]c3ncc(-c4cnn(C5CCNCC5)c4)cc23)nc(N)n1 | -82 | -98 | -9 | -21 | -41 | -22 | -34 | -69 | 4 | -65
2 | CCCCc1cc(-c2c[nH]c3ncccc23)nc(N)n1 | -21 | -70 | -23 | -3 | -6 | -10 | -37 | -9 | > 10 | -12
3 | CCc1cc(-c2c[nH]c3ncc(-c4cnn(C5CCNCC5)c4)cc23)nc(N)n1 | -77 | -91 | -10 | 3 | -41 | -16 | -22 |  |  | -65
4 | Nc1nccc(-c2c[nH]c3ncccc23)n1 [MERIOLIN 1] | -67 | -61 | -23 | -9 | -26 | -5 | -27 | 12 | > 10 | -16

— ChEMBL document CHEMBL3813616, “Discovery of novel 7-azaindoles as PDK1 inhibitors” (Bioorg Med Chem Lett, 2016)
